In patent publication US20060281071A1, “Stearoyl-CoA desaturase assay” (priority 2005, published 2006):
Several values for one entry are separate records, joined by “and”; a condition that tells them apart may be missing. Equal entries are not always repeated. Where two headings read alike, the source gives them in different places.

Experiments:
hSCD5 = target: T1, hSCD5 (Homo sapiens, UniProt Q86SK9); assay: Conversion of saturated fatty acids to Δ9 monounsaturated fatty acids in ole1 yeast L8-14C expressing hSCD5 (GLC); type: cell-based; design: Cloning of the full-length human and mouse SCD cDNAs: The full coding region of human SCDs; expressed in transfected cells; host or cells: Saccharomyces cerevisiae L8-14C (ole1 disruptant), vector p426GPD; conditions: for % conversion of fatty acid to Δ9 monounsaturated fatty acid: endogenous fatty acid, L8-14C transformant, YPD lacking unsaturated fatty acids, 3 days
T1 sequence (Q86SK9 1-330): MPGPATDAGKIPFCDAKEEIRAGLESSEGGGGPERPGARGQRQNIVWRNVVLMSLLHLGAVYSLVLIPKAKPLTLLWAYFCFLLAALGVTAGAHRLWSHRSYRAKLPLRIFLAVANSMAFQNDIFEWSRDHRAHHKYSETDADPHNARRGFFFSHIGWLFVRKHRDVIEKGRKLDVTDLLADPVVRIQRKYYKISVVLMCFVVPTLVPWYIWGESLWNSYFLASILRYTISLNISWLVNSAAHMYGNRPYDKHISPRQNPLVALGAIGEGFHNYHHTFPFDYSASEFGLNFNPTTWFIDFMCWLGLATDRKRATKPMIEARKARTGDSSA
Excerpt: (§1) Functional Analysis: The p426GPD constructs harboring either human or mouse SCDs were transformed into Saccharomyces cerevisiae strain L8-14C (provided by Professor Charles Martin, Division of Life Sciences, Department of Cell Biology and Neuroscience, Rutgers University, Nelson Laboratories), which contains a disruption of the yeast Δ9-desaturase gene ole1 and requires unsaturated fatty acids for growth (Stukey, J. E. et al. (1990) J Biol Chem 265, 20144-20149), by using a Lithium acetate standard methods (Elble, R. (1992) Biotechniques 13, 18-20). The transformed yeast cells were plated onto a synthetic dextrose medium containing 1% tergitol NP-40, 0.5 mM oleic acid, and 0.5 mM palmitoleic acid but lacking uracil. To test the genetic complementation of the mutant yeast strain, transformed yeast cells were plated onto YPD (Yeast Extract/Peptone/Dextrose) medium lacking unsaturated fatty acids. Plates were incubated at 30° C. for 3 days.
(§2) Fatty acid analysis: Yeast cells were grown in liquid YPD medium lacking unsaturated fatty acids for 3 days. Cells were pelleted and washed twice with water, followed by suspension in 0.5 ml of 2M NaOH in methanol. The mixture was then heated to 80° C. for 1 h and acidified with formic acid. Fatty acids were extracted according to Bligh & Dyer's method and trans-methylated with 1 ml of 14% BF3 in methanol (Sigma). The resulting fatty acid methyl esters were extracted with hexane and analyzed by gas-liquid chromatography (GLC) (Miyazaki, M. et al. (2001) J Biol Chem 276, 39455-39461; and Elble, R. (1992) Biotechniques 13, 18-20). The double bond positions of the monounsaturated fatty acid pyrrolidide derivatives were analyzed by tandem GC-MS as described in Miyazaki, M. et al. (2002) J Lipid Res 43, 2146-2154, incorporated by reference in its entirety. Exogenous saturated fatty acids (0.2 mM) were added into YPD in presence of 1% Tergitol NP-40 (Sigma).

mSCD2 = target: T2, mSCD2 (Mus musculus, UniProt P13011); assay: Conversion of saturated fatty acids to Δ9 monounsaturated fatty acids in ole1 yeast L8-14C expressing mSCD2 (GLC); type: cell-based; design: Cloning of the full-length human and mouse SCD cDNAs: The full coding region of human SCDs; expressed in transfected cells; host or cells: Saccharomyces cerevisiae L8-14C (ole1 disruptant), vector p426GPD; conditions: for % conversion of fatty acid to Δ9 monounsaturated fatty acid: endogenous fatty acid, L8-14C transformant, YPD lacking unsaturated fatty acids, 3 days; for conversion of exogenous saturated fatty acid to Δ9 monounsaturated fatty acid: exogenous fatty acid 0.2 mM, 1% tergitol NP-40, yeast cultured 2 days (FIG. 2)
T2 sequence (P13011 1-358): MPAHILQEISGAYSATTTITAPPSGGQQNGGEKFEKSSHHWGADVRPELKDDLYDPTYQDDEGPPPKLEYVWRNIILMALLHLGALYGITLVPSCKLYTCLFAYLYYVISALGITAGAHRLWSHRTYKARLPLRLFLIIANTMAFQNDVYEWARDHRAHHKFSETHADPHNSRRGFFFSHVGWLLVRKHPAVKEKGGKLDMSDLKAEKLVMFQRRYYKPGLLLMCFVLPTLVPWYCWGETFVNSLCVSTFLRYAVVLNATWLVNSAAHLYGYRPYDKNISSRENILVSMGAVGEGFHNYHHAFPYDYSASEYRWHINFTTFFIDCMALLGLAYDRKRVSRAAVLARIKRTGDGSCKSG

mSCD4 = assay: Conversion of saturated fatty acids to Δ9 monounsaturated fatty acids in ole1 yeast L8-14C expressing mSCD4 (GLC); type: cell-based, mouse; conditions: for % conversion of fatty acid to Δ9 monounsaturated fatty acid: endogenous fatty acid, L8-14C transformant, YPD lacking unsaturated fatty acids, 3 days; for conversion of exogenous saturated fatty acid to Δ9 monounsaturated fatty acid: exogenous fatty acid 0.2 mM, 1% tergitol NP-40, yeast cultured 2 days (FIG. 2)
Excerpt: as §1
as §2, with “Cells” for “Fatty acid analysis: Yeast cells were grown in liquid YPD medium lacking unsaturated fatty acids for 3 days. Cells”

hSCD1 = target: T3, hSCD1 (Homo sapiens, UniProt O00767); assay: Conversion of saturated fatty acids to Δ9 monounsaturated fatty acids in ole1 yeast L8-14C expressing hSCD1 (GLC); type: cell-based; design: Cloning of the full-length human and mouse SCD cDNAs: The full coding region of human SCDs; expressed in transfected cells; host or cells: Saccharomyces cerevisiae L8-14C (ole1 disruptant), vector p426GPD; conditions: for % conversion of fatty acid to Δ9 monounsaturated fatty acid: endogenous fatty acid, L8-14C transformant, YPD lacking unsaturated fatty acids, 3 days; for conversion of exogenous saturated fatty acid to Δ9 monounsaturated fatty acid: exogenous fatty acid 0.2 mM, 1% tergitol NP-40, yeast cultured 2 days (FIG. 2)
T3 sequence (O00767 1-359): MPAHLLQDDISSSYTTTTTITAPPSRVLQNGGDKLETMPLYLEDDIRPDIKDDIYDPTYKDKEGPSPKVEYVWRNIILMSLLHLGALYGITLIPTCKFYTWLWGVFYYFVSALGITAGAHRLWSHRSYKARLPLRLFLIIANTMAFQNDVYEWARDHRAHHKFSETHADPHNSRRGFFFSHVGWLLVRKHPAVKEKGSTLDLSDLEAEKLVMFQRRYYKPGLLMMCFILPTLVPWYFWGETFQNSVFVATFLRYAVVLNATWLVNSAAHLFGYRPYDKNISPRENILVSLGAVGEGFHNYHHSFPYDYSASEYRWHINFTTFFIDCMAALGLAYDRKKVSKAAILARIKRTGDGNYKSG

mSCD1 = target: T4, mSCD1 (Mus musculus, UniProt P13516); assay: Conversion of saturated fatty acids to Δ9 monounsaturated fatty acids in ole1 yeast L8-14C expressing mSCD1 (GLC); type: cell-based; design: Cloning of the full-length human and mouse SCD cDNAs: The full coding region of human SCDs; expressed in transfected cells; host or cells: Saccharomyces cerevisiae L8-14C (ole1 disruptant), vector p426GPD; conditions: for % conversion of fatty acid to Δ9 monounsaturated fatty acid: endogenous fatty acid, L8-14C transformant, YPD lacking unsaturated fatty acids, 3 days; for conversion of exogenous saturated fatty acid to Δ9 monounsaturated fatty acid: exogenous fatty acid 0.2 mM, 1% tergitol NP-40, yeast cultured 2 days (FIG. 2)
T4 sequence (P13516 1-355): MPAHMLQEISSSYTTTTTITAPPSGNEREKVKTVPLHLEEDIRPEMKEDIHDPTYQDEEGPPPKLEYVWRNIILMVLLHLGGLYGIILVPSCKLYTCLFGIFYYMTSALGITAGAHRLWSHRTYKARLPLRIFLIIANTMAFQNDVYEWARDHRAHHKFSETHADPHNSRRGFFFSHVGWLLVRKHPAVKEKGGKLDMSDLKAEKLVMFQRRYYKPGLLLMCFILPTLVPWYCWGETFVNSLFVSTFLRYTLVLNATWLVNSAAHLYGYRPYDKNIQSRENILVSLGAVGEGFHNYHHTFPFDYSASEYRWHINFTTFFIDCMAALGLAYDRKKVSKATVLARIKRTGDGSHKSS

mSCD3 = target: T5, mSCD3 (Mus musculus, UniProt Q99PL7, V119A); assay: Conversion of saturated fatty acids to Δ9 monounsaturated fatty acids in ole1 yeast L8-14C expressing mSCD3 (GLC); type: cell-based; design: Cloning of the full-length human and mouse SCD cDNAs: The full coding region of human SCDs; expressed in transfected cells; host or cells: Saccharomyces cerevisiae L8-14C (ole1 disruptant), vector p426GPD
T5 sequence (Q99PL7 1-359 V119A): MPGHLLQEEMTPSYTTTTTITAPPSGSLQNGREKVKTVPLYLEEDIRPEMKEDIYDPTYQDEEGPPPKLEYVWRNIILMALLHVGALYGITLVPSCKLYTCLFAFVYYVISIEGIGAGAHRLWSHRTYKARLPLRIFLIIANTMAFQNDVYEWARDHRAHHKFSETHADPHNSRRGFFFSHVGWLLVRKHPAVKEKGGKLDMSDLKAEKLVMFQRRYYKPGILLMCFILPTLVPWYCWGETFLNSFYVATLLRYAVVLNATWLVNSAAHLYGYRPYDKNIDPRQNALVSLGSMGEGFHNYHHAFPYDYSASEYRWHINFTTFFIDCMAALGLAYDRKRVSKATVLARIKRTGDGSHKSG

[1] = yeast transformant, endogenous fatty acids
[2] = exogenous fatty acid 0.2 mM, 1% tergitol NP-40, yeast cultured 2 days (FIG. 2)

| SMILES | conversion of exogenous saturated fatty acid to Δ9 monounsaturated fatty acid (hSCD5; [2]) | conversion of exogenous saturated fatty acid to Δ9 monounsaturated fatty acid (mSCD2) | conversion of exogenous saturated fatty acid to Δ9 monounsaturated fatty acid (mSCD4) | conversion of exogenous saturated fatty acid to Δ9 monounsaturated fatty acid (hSCD1) | conversion of exogenous saturated fatty acid to Δ9 monounsaturated fatty acid (mSCD1) | other results |
| --- | --- | --- | --- | --- | --- | --- |
| CCCCCCCCCCCCCCCCCC(=O)O [18:0] | – | – | – | – | – | % conversion of fatty acid to Δ9 monounsaturated fatty acid (hSCD5): 86.6%; conversion of 18:0 to 18:1Δ9 relative to that of 16:0 (hSCD5; [1]): more than 4 fold; % conversion of fatty acid to Δ9 monounsaturated fatty acid (mSCD2): 77% and 77.3%; % conversion of fatty acid to Δ9 monounsaturated fatty acid (mSCD4): 16.8%; % conversion of fatty acid to Δ9 monounsaturated fatty acid (hSCD1): 75.0%; conversion towards 18:0 relative to 16:0 (hSCD1; [1]): 1.7 fold; % conversion of fatty acid to Δ9 monounsaturated fatty acid (mSCD1): 85% and 84.8% |
| CCCCCCCCCCCCCCCC(=O)O [16:0] | – | – | – | – | – | % conversion of fatty acid to Δ9 monounsaturated fatty acid (hSCD5): 19.9%; % conversion of fatty acid to Δ9 monounsaturated fatty acid (mSCD2): 51.4%; % conversion of fatty acid to Δ9 monounsaturated fatty acid (mSCD4): 9.7%; % conversion of fatty acid to Δ9 monounsaturated fatty acid (hSCD1): 43.8%; % conversion of fatty acid to Δ9 monounsaturated fatty acid (mSCD1): 36.4% |
| CCCCCCCCCCCCCCCCC(=O)O [17:0, heptadecanoic acid] | 31% | 31% | 5.7% | 35% | 43% | – |
| CCCCCCCCCCCCC(=O)O [13:0, tridecanoic acid] | did not desaturate | 14% | – | 9% | 13% | – |
| CCCCCCCCCCCCCCCCCCCC(=O)O [C20:0, eicosanoic acid] | None of Δ9-desaturase was able to utilize | None of Δ9-desaturase was able to utilize | None of Δ9-desaturase was able to utilize | None of Δ9-desaturase was able to utilize | None of Δ9-desaturase was able to utilize | – |
| CCCCCCCCCCCCCC(=O)O [14:0, myristic acid] | less than 5% | 14% | 2.9% | 18% | 11% | – |
| CCCCCCCCCCCC(=O)O [12:0, lauric acid] | – | – | – | – | – | conversion of exogenous saturated fatty acid to Δ9 monounsaturated fatty acid (hSCD5): did not desaturate; conversion of exogenous saturated fatty acid to Δ9 monounsaturated fatty acid (mSCD3): 14% |
